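These data come from cells grown in 96-well plates and exposed to compound for 48 hours at five concentrations. The concentration for full growth arrest is given as TGI.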
Experiments:
Experiment in all cases: DTP human tumour cell line panel, 48 h
786-0 renal = system: 786-0 renal
A498 renal = system: A498 renal
A549 NSCLC = system: A549 NSCLC
ACHN renal = system: ACHN renal
CCRF-CEM leukemia = system: CCRF-CEM leukemia
COLO 205 colon = system: COLO 205 colon
DLD-1 colon = system: DLD-1 colon
DMS 114 small cell lung = system: DMS 114 small cell lung
EKVX NSCLC = system: EKVX NSCLC
HCC-2998 colon = system: HCC-2998 colon
HCT-116 colon = system: HCT-116 colon
HCT-15 colon = system: HCT-15 colon
HL-60(TB) leukemia = system: HL-60(TB) leukemia
HOP-18 NSCLC = system: HOP-18 NSCLC
HOP-62 NSCLC = system: HOP-62 NSCLC
HT29 colon = system: HT29 colon
K-562 leukemia = system: K-562 leukemia
KM12 colon = system: KM12 colon
KM20L2 colon = system: KM20L2 colon
LOX IMVI melanoma = system: LOX IMVI melanoma
M14 melanoma = system: M14 melanoma
M19-MEL melanoma = system: M19-MEL melanoma
MALME-3M melanoma = system: MALME-3M melanoma
MOLT-4 leukemia = system: MOLT-4 leukemia
NCI-H226 lung = system: NCI-H226 lung
NCI-H23 lung = system: NCI-H23 lung
NCI-H460 lung = system: NCI-H460 lung
NCI-H522 lung = system: NCI-H522 lung
OVCAR-3 ovarian = system: OVCAR-3 ovarian
OVCAR-4 ovarian = system: OVCAR-4 ovarian
OVCAR-5 ovarian = system: OVCAR-5 ovarian
OVCAR-8 ovarian = system: OVCAR-8 ovarian
RPMI-8226 leukemia = system: RPMI-8226 leukemia
RXF 393 renal = system: RXF 393 renal
RXF-631 renal = system: RXF-631 renal
SF-268 CNS = system: SF-268 CNS
SF-295 CNS = system: SF-295 CNS
SF-539 CNS = system: SF-539 CNS
SK-MEL-2 melanoma = system: SK-MEL-2 melanoma
SK-MEL-28 melanoma = system: SK-MEL-28 melanoma
SK-OV-3 ovarian = system: SK-OV-3 ovarian
SN12C renal = system: SN12C renal
SNB-19 CNS = system: SNB-19 CNS
SNB-75 CNS = system: SNB-75 CNS
SNB-78 CNS = system: SNB-78 CNS
SW-620 colon = system: SW-620 colon
TK-10 renal = system: TK-10 renal
U251 CNS = system: U251 CNS
UACC-257 melanoma = system: UACC-257 melanoma
UACC-62 melanoma = system: UACC-62 melanoma
UO-31 renal = system: UO-31 renal
XF 498 CNS = system: XF 498 CNS
HOP-92 NSCLC = system: HOP-92 NSCLC
IGROV1 ovarian = system: IGROV1 ovarian
LXFL 529 NSCLC = system: LXFL 529 NSCLC
SK-MEL-5 melanoma = system: SK-MEL-5 melanoma
SR leukemia = system: SR leukemia

With `O=C(CC1(O)C(=O)Nc2ccc([N+](=O)[O-])cc21)c1ccncc1` (centres undefined) the TGI (786-0 renal) was greater than 100 µM, the TGI (A498 renal) was greater than 100 µM and the TGI (A549 NSCLC) was greater than 100 µM. It also gave a TGI (ACHN renal) greater than 100 µM, a TGI (CCRF-CEM leukemia) greater than 100 µM and a TGI (COLO 205 colon) greater than 100 µM. The TGI (DLD-1 colon) was greater than 100 µM, the TGI (DMS 114 small cell lung) was 82.8 µM and the TGI (EKVX NSCLC) was greater than 100 µM. It also gave a TGI (HCC-2998 colon) greater than 100 µM, a TGI (HCT-116 colon) greater than 100 µM and a TGI (HCT-15 colon) greater than 100 µM. The TGI (HL-60(TB) leukemia) was 56.5 µM, the TGI (HOP-18 NSCLC) was greater than 100 µM and the TGI (HOP-62 NSCLC) was greater than 100 µM. For the same molecule, the TGI (HT29 colon) was greater than 100 µM, the TGI (K-562 leukemia) was 75.1 µM and the TGI (KM12 colon) was greater than 100 µM. It also gave a TGI (KM20L2 colon) greater than 100 µM, a TGI (LOX IMVI melanoma) of 29.3 µM and a TGI (M14 melanoma) greater than 100 µM. For the same molecule, the TGI (M19-MEL melanoma) was 63.1 µM, the TGI (MALME-3M melanoma) was 66.2 µM and the TGI (MOLT-4 leukemia) was 70.1 µM. For the same molecule, the TGI (NCI-H226 lung) was greater than 100 µM, the TGI (NCI-H23 lung) was 73.1 µM and the TGI (NCI-H460 lung) was greater than 100 µM. It also gave a TGI (NCI-H522 lung) of 71.5 µM, a TGI (OVCAR-3 ovarian) of 65 µM and a TGI (OVCAR-4 ovarian) of 40.9 µM. The TGI (OVCAR-5 ovarian) was greater than 100 µM, the TGI (OVCAR-8 ovarian) was greater than 100 µM and the TGI (RPMI-8226 leukemia) was 68.6 µM. For the same molecule, the TGI (RXF 393 renal) was 64.4 µM, the TGI (RXF-631 renal) was 54.7 µM and the TGI (SF-268 CNS) was greater than 100 µM. It also gave a TGI (SF-295 CNS) greater than 100 µM, a TGI (SF-539 CNS) greater than 100 µM and a TGI (SK-MEL-2 melanoma) greater than 100 µM. For the same molecule, the TGI (SK-MEL-28 melanoma) was greater than 100 µM, the TGI (SK-OV-3 ovarian) was greater than 100 µM and the TGI (SN12C renal) was greater than 100 µM. It also gave a TGI (SNB-19 CNS) greater than 100 µM, a TGI (SNB-75 CNS) of 98.8 µM and a TGI (SNB-78 CNS) greater than 100 µM. For the same molecule, the TGI (SW-620 colon) was 47.9 µM, the TGI (TK-10 renal) was greater than 100 µM and the TGI (U251 CNS) was 66.1 µM. For the same molecule, the TGI (UACC-257 melanoma) was 32.9 µM, the TGI (UACC-62 melanoma) was greater than 100 µM and the TGI (UO-31 renal) was greater than 100 µM. It also gave a TGI (XF 498 CNS) of 34.2 µM.

`COc1ccc(-c2cc(=O)c3cc(Cl)ccc3[nH]2)cc1` gave a TGI (786-0 renal) greater than 100 µM, a TGI (ACHN renal) greater than 100 µM and a TGI (CCRF-CEM leukemia) greater than 100 µM. For the same molecule, the TGI (COLO 205 colon) was greater than 100 µM, the TGI (DLD-1 colon) was greater than 100 µM and the TGI (DMS 114 small cell lung) was greater than 100 µM. It also gave a TGI (EKVX NSCLC) greater than 100 µM, a TGI (HCC-2998 colon) greater than 100 µM and a TGI (HCT-116 colon) greater than 100 µM. For the same molecule, the TGI (HL-60(TB) leukemia) was greater than 100 µM, the TGI (HOP-18 NSCLC) was greater than 100 µM and the TGI (HOP-62 NSCLC) was greater than 100 µM. The TGI (HOP-92 NSCLC) was greater than 100 µM, the TGI (HT29 colon) was greater than 100 µM and the TGI (IGROV1 ovarian) was greater than 100 µM. The TGI (K-562 leukemia) was greater than 100 µM, the TGI (KM12 colon) was greater than 100 µM and the TGI (KM20L2 colon) was greater than 100 µM. It also gave a TGI (LOX IMVI melanoma) greater than 100 µM, a TGI (LXFL 529 NSCLC) greater than 100 µM and a TGI (M14 melanoma) greater than 100 µM. For the same molecule, the TGI (M19-MEL melanoma) was greater than 100 µM, the TGI (MALME-3M melanoma) was greater than 100 µM and the TGI (MOLT-4 leukemia) was greater than 100 µM. For the same molecule, the TGI (NCI-H226 lung) was greater than 100 µM, the TGI (NCI-H23 lung) was greater than 100 µM and the TGI (NCI-H460 lung) was greater than 100 µM. The TGI (NCI-H522 lung) was greater than 100 µM, the TGI (OVCAR-3 ovarian) was greater than 100 µM and the TGI (OVCAR-4 ovarian) was greater than 100 µM. The TGI (OVCAR-5 ovarian) was greater than 100 µM, the TGI (OVCAR-8 ovarian) was greater than 100 µM and the TGI (RPMI-8226 leukemia) was greater than 100 µM. For the same molecule, the TGI (RXF 393 renal) was greater than 100 µM, the TGI (RXF-631 renal) was greater than 100 µM and the TGI (SF-268 CNS) was greater than 100 µM. The TGI (SF-295 CNS) was greater than 100 µM, the TGI (SF-539 CNS) was greater than 100 µM and the TGI (SK-MEL-28 melanoma) was greater than 100 µM. For the same molecule, the TGI (SK-MEL-5 melanoma) was greater than 100 µM, the TGI (SK-OV-3 ovarian) was greater than 100 µM and the TGI (SN12C renal) was greater than 100 µM. The TGI (SNB-19 CNS) was greater than 100 µM, the TGI (SNB-75 CNS) was greater than 100 µM and the TGI (SNB-78 CNS) was greater than 100 µM. It also gave a TGI (SR leukemia) greater than 100 µM, a TGI (SW-620 colon) greater than 100 µM and a TGI (TK-10 renal) greater than 100 µM. For the same molecule, the TGI (UACC-257 melanoma) was greater than 100 µM, the TGI (UACC-62 melanoma) was greater than 100 µM and the TGI (UO-31 renal) was greater than 100 µM. It also gave a TGI (XF 498 CNS) greater than 100 µM.
